Laboratory results from BindingDB's records for doi:10.1016/j.bmc.2018.12.038 (Peking University, 2019).

Biological target: T1, CD81 antigen (Homo sapiens, UniProt P60033)
T1 sequence (P60033 whole entry): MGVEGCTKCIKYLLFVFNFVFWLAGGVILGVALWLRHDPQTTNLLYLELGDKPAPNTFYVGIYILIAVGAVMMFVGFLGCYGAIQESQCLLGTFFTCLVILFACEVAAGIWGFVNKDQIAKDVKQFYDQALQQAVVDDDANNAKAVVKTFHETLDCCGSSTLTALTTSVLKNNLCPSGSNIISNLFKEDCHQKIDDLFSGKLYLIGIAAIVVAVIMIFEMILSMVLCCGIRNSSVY
Assay: Binding affinity to CD81 (unknown origin) assessed as […] rate constant by surface plasmon resonance assay
Conditions: read-out: kon (M-1-s-1)

kon | SMILES
2.53e+08 M⁻¹ s⁻¹ | C/C(=C\CC[C@]1(C)[C@@H](C(=O)O)C[C@H]1[C@](C)(O)C(=O)O)C(=O)O
2.02e+06 M⁻¹ s⁻¹ | CC(=O)[C@@H]1C[C@H](C(=O)O)[C@@]1(C)CC/C=C(\C)C(=O)O
